According to US9896441B2 (Lycera Corporation, priority 2014, dated 2018):

Key:
RORγ-LBD = target: T1, RORγ-LBD (Homo sapiens, UniProt P51449); assay: RORγ-Ligand Binding Domain (LBD) TR-FRET Assay; format: biochemical;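 for TR-FRET Assay Max Response: 665/615 nm signal ratio set to 100 without ursolic acid or test compound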
T1 construct: made in house; host or cells: SF9 cells (baculovirus); used as diluted lysate
T1 sequence (P51449 269-508 limits assumed): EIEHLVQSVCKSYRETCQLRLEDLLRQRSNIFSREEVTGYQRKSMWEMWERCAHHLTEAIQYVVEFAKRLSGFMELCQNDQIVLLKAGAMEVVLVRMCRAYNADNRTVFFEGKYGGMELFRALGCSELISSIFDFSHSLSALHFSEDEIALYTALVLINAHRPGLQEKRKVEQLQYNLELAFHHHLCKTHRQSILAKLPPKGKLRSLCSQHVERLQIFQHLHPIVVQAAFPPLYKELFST
Method in brief: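 SF9 lysate containing His-RORγ-LBD, ~3 nM final; coactivator peptide biotin-SRC1 LXXLL, 200 nM final; ursolic acid 2 μM final; DMSO 1% final; Tris pH 7.0 buffer with KCl, EDTA, DTT, BSA. TR-FRET format.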

Gal4-RORγ-LBD = target: T2, Gal4-RORγ-LBD (Homo sapiens, UniProt P51449); assay: Gal4-RORγ Luciferase Reporter Assay in HEK-293T Cells; format: cell-based; conditions: HEK-293 cells, luciferase reporter; for Gal4-RORγ Assay Max Response: maximum response
T2 construct: expressed in transfected cells
T2 sequence (P51449 269-508 limits assumed): T1 sequence (P51449 269-508 limits assumed)
Protocol: Assay procedures and results are described below.
In the following protocol, HEK-293 cells were transfected with a construct comprising the Gal4 DNA binding domain fused to the ligand binding domain of RORγ (Gal4-RORγ-LBD) in a pcDNA3.1neo plasmid, and also with a reporter construct comprising pGL4.31 Gal4-luciferase (Promega). Control cells were prepared similarly using empty pcDNA3.1neo and pGL4.31 vectors.
Trans-IT reagent (Mirus, 60 μL) at room temperature was added drop wise to OptiMEM (Invitrogen, 1.5 ml). This reagent mixture was mixed by inversion then incubated for 5 to 30 minutes at room temperature. It then was added to a solution of both expression vectors (5 μg each), mixed, and incubated at room temperature for about 20 minutes. HEK-293 cells were harvested from incubation flasks by removing the media, treating with TrypLE Express (Invitrogen), and incubating until the cells detached from the bottom of the flask (approximately 2-5 minutes). 10 Million cells were collected by centrifugation and re-suspended in 10 mL of Dulbecco's Modified Eagle Medium, High Glucose (DMEM, Invitrogen) containing 10% Fetal Bovine Serum and 100 IU each of penicillin and streptomycin. The re-suspended cells and the transfection mixture were added to a T75 flask, mixed and incubated overnight at 37° C. and 5% CO2.
The cells were harvested as described above, counted, and centrifuged to obtain the desired number of cells, then re-suspended in complete growth media at 0.75×10^6 cells/mL. The RORγ antagonist, ursolic acid, was added to the cells at a final concentration of […]. Cells were plated at 20 µL of cell suspension/well (10,000-15,000 cells/well) in white tissue culture treated 384 well plates. Test compounds were dissolved at 10 mM in DMSO then diluted into complete growth medium to 5× the final intended test concentration. These drug stock solutions, 5 µL/well were added to the tissue culture plate. The final DMSO concentration was 0.2%. The plates were briefly centrifuged then incubated overnight at 37° C. and 5% CO2. To conduct the assay, the tissue culture plates were allowed to equilibrate to room temperature and One-Glo luciferase reagent (Promega, 25 µL/well) was added. The plates were briefly centrifuged then incubated at room temperature for 10 minutes. The luciferase intensity was read on an Envision plate reader (Perkin Elmer). […] The luciferase signal in the absence of ursolic acid or test compound is defined at 100. The Max Response is the upper plateau in the signal as determined by line-fit using a 4-parameter logistic model in PRISM (GraphPad).

CCOc1nn(CC)cc1S(=O)(=O)N1C[C@H](CCC(=O)OC)Oc2ccc(/C=C(\C)c3c(Cl)cccc3C(F)(F)F)cc21 [Example 86AX, methyl (S,E)-3-(6-(2-(2-chloro-6-(trifluoromethyl)phenyl)prop-1-en-1-yl)-4-((3-ethoxy-1-ethyl-1H-pyrazol-4-yl)sulfonyl)-3,4-dihydro-2H-benzo[b][1,4]oxazin-2-yl)propanoate]
EC50 (RORγ-LBD; RORγ-LBD TR-FRET): < 500 nM | EC50 (Gal4-RORγ-LBD; with ursolic acid): 500 to 5000 nM

O=C(O)CC[C@H]1CN(S(=O)(=O)c2cccc(C(F)(F)F)c2)c2cc(/C=C/c3cccc(F)c3Cl)ccc2O1 [Example 89BP, (S,E)-3-(6-(2-chloro-3-fluorostyryl)-4-((3-(trifluoromethyl)phenyl)sulfonyl)-3,4-dihydro-2H-benzo[b][1,4]oxazin-2-yl)propanoic acid]
EC50 (RORγ-LBD; RORγ-LBD TR-FRET): < 500 nM | EC50 (Gal4-RORγ-LBD; with ursolic acid): > 10000 nM

COC(=O)CC[C@H]1CN(S(=O)(=O)c2cccc(C(F)F)c2)c2cc(/C=C/c3c(Cl)cccc3C(F)(F)F)ccc2O1 [Example 81, Methyl (S,E)-3-(6-(2-chloro-6-(trifluoromethyl)styryl)-4-((3-(difluoromethyl)phenyl)sulfonyl)-3,4-dihydro-2H-benzo[b][1,4]oxazin-2-yl)propanoate]
EC50 (RORγ-LBD; RORγ-LBD TR-FRET): < 500 nM | EC50 (Gal4-RORγ-LBD; with ursolic acid): < 500 nM

COC(=O)CC[C@H]1CN(S(=O)(=O)c2cc(C(F)(F)F)cnc2OCCO)c2cc(/C=C/c3c(Cl)cccc3C(F)F)ccc2O1 [Example 89EL, methyl (S,E)-3-(6-(2-chloro-6-(difluoromethyl)styryl)-4-((2-(2-hydroxyethoxy)-5-(trifluoromethyl)pyridin-3-yl)sulfonyl)-3,4-dihydro-2H-benzo[b][1,4]oxazin-2-yl)propanoate]
EC50 (RORγ-LBD; RORγ-LBD TR-FRET): < 500 nM | EC50 (Gal4-RORγ-LBD; with ursolic acid): < 500 nM

CCOc1sc(CC)nc1S(=O)(=O)N1C[C@H](CCC(=O)O)Oc2ccc(/C=C(\C)c3c(F)cccc3Cl)cc21 [Example 73, (S,E)-3-(6-(2-(2-Chloro-6-fluorophenyl)prop-1-en-1-yl)-4-((5-ethoxy-2-ethylthiazol-4-yl)sulfonyl)-3,4-dihydro-2H-benzo[b][1,4]oxazin-2-yl)propanoic acid]
EC50 (RORγ-LBD; RORγ-LBD TR-FRET): < 500 nM | EC50 (Gal4-RORγ-LBD; with ursolic acid): < 500 nM

CC(F)(F)c1cccc(Cl)c1/C=C/c1ccc2c(c1)N(S(=O)(=O)c1cccc(C(F)(F)F)c1)C[C@H](CCC(=O)O)O2 [Example 89EV, (S,E)-3-(6-(2-chloro-6-(1,1-difluoroethyl)styryl)-4-((3-(trifluoromethyl)phenyl)-sulfonyl)-3,4-dihydro-2H-benzo[b][1,4]oxazin-2-yl)propanoic acid]
EC50 (RORγ-LBD; RORγ-LBD TR-FRET): < 500 nM | EC50 (Gal4-RORγ-LBD; with ursolic acid): 5000 to 10000 nM

CC1CCCC/C1=C\c1ccc2c(c1)N(S(=O)(=O)c1cc(C(F)(F)F)cnc1OCCO)C[C@H](CCC(=O)O)O2 (stereo partly drawn) [Example 95R]
EC50 (RORγ-LBD; RORγ-LBD TR-FRET): < 500 nM | EC50 (Gal4-RORγ-LBD; with ursolic acid): < 500 nM

Cn1cnc(S(=O)(=O)N2C[C@H](CCC(=O)O)Oc3ccc(/C=C/c4c(F)cccc4Cl)cc32)c1Cl [Example 89DZ, (S,E)-3-(4-((5-chloro-1-methyl-1H-imidazol-4-yl)sulfonyl)-6-(2-chloro-6-fluorostyryl)-3,4-dihydro-2H-benzo[b][1,4]-oxazin-2-yl)propanoic acid]
EC50 (RORγ-LBD; RORγ-LBD TR-FRET): 500 to 5000 nM | EC50 (Gal4-RORγ-LBD; with ursolic acid): > 10000 nM

O=C(O)CC[C@H]1CN(S(=O)(=O)c2cc(C(F)(F)F)cnc2OCCO)c2cc(/C=C3/CCCOC3)ccc2O1 [Example 95Y, (S,Z)-3-(6-((dihydro-2H-pyran-3(4H)-ylidene)methyl)-4-((2-(2-hydroxyethoxy)-5-(trifluoromethyl)pyridin-3-yl)sulfonyl)-3,4-dihydro-2H-benzo[b][1,4]oxazin-2-yl)propanoic acid]
EC50 (RORγ-LBD; RORγ-LBD TR-FRET): < 500 nM | EC50 (Gal4-RORγ-LBD; with ursolic acid): 500 to 5000 nM

CCn1cc(S(=O)(=O)N2C[C@H](CNC(C)=O)Oc3c(F)cc(/C=C(\C)c4c(F)cccc4Cl)cc32)c(Cl)n1 [Example 109A, (S,E)-N-((4-((3-chloro-1-ethyl-1H-pyrazol-4-yl)sulfonyl)-6-(2-(2-chloro-6-fluorophenyl)prop-1-en-1-yl)-8-fluoro-3,4-dihydro-2H-benzo[b][1,4]oxazin-2-yl)methyl)acetamide]
EC50 (RORγ-LBD; RORγ-LBD TR-FRET assay): < 500 nM | TR-FRET Assay Max Response (RORγ-LBD; RORγ-LBD TR-FRET assay, maximum response): *** (a value in the range of greater than 150 to 200) | EC50 (Gal4-RORγ-LBD; in presence of ursolic acid): < 500 nM | Gal4-RORγ Assay Max Response (Gal4-RORγ-LBD; in presence of ursolic acid): * (a value in the range of 30 to 90)

CCn1cc(S(=O)(=O)N2C[C@H]([C@@H](C)O)Oc3ccc(/C=C(\C)c4c(F)cccc4Cl)cc32)c(Cl)n1 [Example 99, (R)-1-((R)-4-((3-Chloro-1-ethyl-1H-pyrazol-4-yl)sulfonyl)-6-((E)-2-(2-chloro-6-fluorophenyl)prop-1-en-1-yl)-3,4-dihydro-2H-benzo[b][1,4]oxazin-2-yl)ethan-1-ol]
EC50 (RORγ-LBD; RORγ-LBD TR-FRET): < 500 nM | EC50 (Gal4-RORγ-LBD; with ursolic acid): 500 to 5000 nM

CCOc1sc(CC)nc1S(=O)(=O)N1C[C@H](CCC(=O)OC)Oc2ccc(/C=C(\C)c3c(F)cccc3Cl)cc21 [Example 72, Methyl (S,E)-3-(6-(2-(2-chloro-6-fluorophenyl)prop-1-en-1-yl)-4-((5-ethoxy-2-ethylthiazol-4-yl)sulfonyl)-3,4-dihydro-2H-benzo[b][1,4]oxazin-2-yl)propanoate]
EC50 (RORγ-LBD; RORγ-LBD TR-FRET): < 500 nM | EC50 (Gal4-RORγ-LBD; with ursolic acid): < 500 nM

COc1cc(S(=O)(=O)N2C[C@H](CCC(=O)O)Oc3ccc(/C=C(\C)C4CCCCC4)cc32)ccc1F [Example 190, (S,E)-3-(6-(2-cyclohexylprop-1-en-1-yl)-4-((4-fluoro-3-methoxyphenyl)sulfonyl)-3,4-dihydro-2H-benzo[b][1,4]oxazin-2-yl)propanoic acid]
EC50 (Gal4-RORγ-LBD; in presence of ursolic acid): > 10000 nM

COC(=O)CC[C@H]1CN(S(=O)(=O)c2cccc(C(F)(F)F)c2)c2cc(/C=C/c3cccnc3C(F)(F)F)ccc2O1 [Example 89DF, methyl (S,E)-3-(4-((3-(trifluoromethyl)phenyl)-sulfonyl)-6-(2-(2-(trifluoromethyl)pyridin-3-yl)vinyl)-3,4-dihydro-2H-benzo[b][1,4]oxazin-2-yl)propanoate]
EC50 (Gal4-RORγ-LBD; with ursolic acid): > 10000 nM

CCOc1nn2c(c1S(=O)(=O)N1C[C@H](CCC(=O)OC)Oc3ccc(/C=C(\C)c4c(F)cccc4Cl)cc31)CCCC2 [Example 65, Methyl (S,E)-3-(6-(2-(2-chloro-6-fluorophenyl)prop-1-en-1-yl)-4-((2-ethoxy-4,5,6,7-tetrahydropyrazolo[1,5-a]pyridin-3-yl)sulfonyl)-3,4-dihydro-2H-benzo[b][1,4]oxazin-2-yl)propanoate]
EC50 (Gal4-RORγ-LBD; with ursolic acid): 500 to 5000 nM

O=C(O)CC[C@H]1CN(S(=O)(=O)c2cccc(C(F)(F)F)c2)c2cc(/C=C3\CCCOC3)ccc2O1 [Example 95I, (S,E)-3-(6-((dihydro-2H-pyran-3(4H)-ylidene)methyl)-4-((3-(trifluoromethyl)phenyl)sulfonyl)-3,4-dihydro-2H-benzo[b][1,4]oxazin-2-yl)propanoic acid]
EC50 (Gal4-RORγ-LBD; with ursolic acid): 500 to 5000 nM

CC(=O)NC1CN(C(=O)CC[C@H]2CN(S(=O)(=O)c3cccc(C(F)(F)F)c3)c3cc(/C=C(\C)c4c(F)cccc4Cl)ccc3O2)C1 [Example 127N, (S,E)-N-(1-(3-(6-(2-(2-chloro-6-fluorophenyl)-prop-1-en-1-yl)-4-((3-(trifluoromethyl)phenyl)-sulfonyl)-3,4-dihydro-2H-benzo[b][1,4]oxazin-2-yl)propanoyl)azetidin-3-yl)acetamide]
EC50 (Gal4-RORγ-LBD; in presence of ursolic acid): < 500 nM | Gal4-RORγ Assay Max Response (Gal4-RORγ-LBD; in presence of ursolic acid): ** (a value in the range of greater than 90 to 150)

C/C(=C\c1ccc2c(c1)N(S(=O)(=O)c1cc(F)cc(C(F)(F)F)c1)C[C@H](CCC(=O)O)O2)c1c(F)cccc1Cl [Example 86AQ, (S,E)-3-(6-(2-(2-chloro-6-fluorophenyl)-prop-1-en-1-yl)-4-((3-fluoro-5-(trifluoromethyl)-phenyl)sulfonyl)-3,4-dihydro-2H-benzo[1,4]oxazin-2-yl)propanoic acid]
EC50 (Gal4-RORγ-LBD; with ursolic acid): < 500 nM
